Source: patent US5866570A, “Treatment of vascular leakage and related syndrome such as septic shock by administration of metalloproteinase inhibitors” (Wisconsin Alumni Research Foundation, priority 1994, dated 1999)
Converted amounts (≈) assume the structure as drawn.

What was measured:
BALB/C mice [1] = experiment: septic shock induced by i.p. endotoxin (Salmonella abortus equi); assay type: in vivo; details: for Survival/Total Ratio after 24 h / Survival/Total Ratio after 48 h / Survival/Total Ratio after 72 h: endotoxin2 (Salmonella abortus equi) i.p., drug i.p. 1 h before, 9 h and 20 h after
Experimental: Effect of razoxane in preventing death due to endotoxin-induced septic shock. Twelve BALB/c mice (female, 10-12 weeks old, 18-20 g) were injected i.p. with endotoxin (Salmonella abortus equi) twice at time zero (70 μg/mouse) and 48 h (30 μg/mouse). Razoxane (2 mg/mouse, in 1% sodium carboxymethyl cellulose) was given i.p. three times, i.e., 1 h. before, 9 h. and 20 h. after injection of initial dose of endotoxin. Another twelve mice, injected with endotoxin as above, were treated with buffer solution (1 % sodium carboxymethyl cellulose) as negative controls. It can be seen therein that the majority of control mice were dead within 50 hours of the initial endotoxin administration. In contrast, approximately 80% of the razoxane treated mice were still alive after 50 hours. Moreover, about 60% of the razoxane treated mice were still alive 100 hours after endotoxin administration, and recovered later on.
Effect of Compound 80 in preventing death due to endotoxin-induced septic shock. Twenty BALB/c mice (female, 10-12 weeks old, 18-20 g) were injected i.p. with endotoxin (Salmonella abortus equi, 100 μg/mouse). Compound 80 (0.33 mg/mouse) was given i.p. to 10 mice three times, i.e., 1 hour before, 9 hours and 20 hours after injection of endotoxin. The other 10 mice were injected with diluents as negative controls. The number of the mice survived at different periods to time after endotoxin injection were recorded. (P<0.0002).

BALB/C mice [2] = experiment: septic shock induced by galactosamine and endotoxin (E. coli 026:B6); assay type: in vivo
Experimental: Ten BALB/C mine were injected i.p. with 18 mg of D-galactosamine and 1 μg of endotoxin. Three units of heparin were given i.v. and 10 units heparin were given subcutaneously at 30 min to prevent intravascular coagulation.
Ten BALB/C mice were treated with razoxane (100 μg/g body weight i.p., dissolved in 1% carboxymethyl-cellulose in normal saline). The mice were then injected i.p. with 18 mg of D-galactosamine and 1 μg of endotoxin. Three units of heparin were given i.v. and 10 units heparin were given subcutaneously to each mice at 30 min.

retired bred BALB/C mice = experiment: septic shock induced by i.v. endotoxin (E. coli 026:B6); assay type: in vivo; details: razoxane 100 μg/g i.p. before 200 μg endotoxin i.v.; heparin
Experimental: Two retired bred BALB/C mice were injected with 100 μg of endotoxin and 3 units of heparin i.v., followed by 10 units heparin subcutaneously. Another two mice were treated the same except with 200 μg of endotoxin. All died within 24 h.
Six retired bred BALB/C mice were treated with razoxane (100 μg/g body weight i.p.). The mice were then injected with 200 μg of endotoxin and 3 units of heparin i.v., followed by 10 units heparin subcutaneously.

OVCAR-3 cells = experiment: OVCAR-3 human ovarian cancer model in nude mice; assay type: in vivo; details: 30 mg/kg i.p., one dose/day 5 consecutive days/week, from 24 hours before 20 million cells i.p.
Experimental: Dose and Schedule--Razoxane was suspended in sterile 1% CMC (carboxymethyl cellulose) 0.9% NaCl by sonication in a water bath. Mice received 30 mg/kg drug in 10 μl/g CMC per i.p. dose beginning 24 hours prior to cell implantation. Each mouse received one dose/day i.p. for 5 consecutive days with 2 days of recovery. Treatment continued until mouse death or sacrifice.
OVCAR-3 cells--were received from Dr. Tom Hamilton and are maintained by passage of ascites directly from the mouse. The ascites is harvested from the mouse by rinsing the peritoneal cavity with HBSS, treated briefly with Dispase to dissociate clumps, centrifuged, counted, resuspended in HBSS and 20 million cells injected i.p. per mouse.
Mice--HSD nu/nu female mice 6 weeks old (18-22 g) are weighed, tagged with a metal ear clip, and randomized for treatment or control groups. Mice are weighed daily and the dose of drug or vehicle is calculated.
Visible ascites appears around day 14 with small solid tumors at the sites of injections. The mice swell with hemorrhagic ascites prior to death. At necropsy mice contain massive invasive carcinomatosis obliterating most of the normal organs of the peritoneal cavity with significant metastasis to the lungs. A 25% increase in mean/median survival time with drug treatment is considered significant in this model.

S180 tumors = details: cited from earlier work
[3] = at 25° C.; cited from earlier work
V-79A fibroblasts = details: tissue culture; cited from earlier work
[4] = galactosamine + endotoxin1 (E. coli 026:B6)
[5] = razoxane 2 mg/mouse i.p. three times, endotoxin 70 μg at 0 h and 30 μg at 48 h

## CC1(C)O[C@H]2C[C@H](N3CC(=O)NC(=O)C3)[C@@H](N3CC(=O)NC(=O)C3)C[C@@H]2O1 (relative stereo) [Compound 80, (3aα, 5β, 6α, 7aβ)-4,4'-(hexahydro-2,2-dimethyl-1,3-benzodioxole-5,6-diyl)bis(2,6-piperazinedione)]
BALB/C mice [1]
  Survival/Total Ratio after 24 h: 10/10
  Survival/Total Ratio after 48 h: 8/10
  Survival/Total Ratio after 72 h: 6/10

## CC(CN1CC(=O)NC(=O)C1)N1CC(=O)NC(=O)C1 (stereo not drawn) [razoxane]
BALB/C mice [2]; [4]
  Survival/Total Ratio after 24 h: 2/10
  Survival/Total Ratio after 48 h: 2/10
  Survival/Total Ratio after 72 h: 2/10
BALB/C mice [2]; razoxane 100 μg/g i.p. before 18 mg D-galactosamine + 1 μg endotoxin i.p., heparin
  mice surviving more than 24 h: Two out of ten
Retired bred BALB/C mice
  mice surviving more than 24 h: Two out of six
BALB/C mice [1]
  Survival/Total Ratio after 24 h: 10/12
  Survival/Total Ratio after 48 h: 9/12
  Survival/Total Ratio after 72 h: 7/12
BALB/C mice [1]; [5]
  treated mice still alive 100 hours after endotoxin administration: about 60%
  treated mice still alive after 50 hours: approximately 80%
OVCAR-3 cells
  difference in the survival time between treated and control mice: > 33%
S180 tumors; 5 doses at 30 mg/kg
  inhibition of S180 tumors: 93%
S180 tumors; therapeutic index in vivo
  calculated ratio of maximum tolerated dose to the dose required for 90% inhibition of S180 tumor growth: 9.8
[3]
  solubility in water: 3000 µg/mL (≈ 11.2 mM)
V-79A fibroblasts
  cytotoxic activity: has cytoxic activity
